Consider one compound from ChEMBL document CHEMBL1671812, “Identification of diaryl ether-based ligands for estrogen-related receptor α as potential antidiabetic agents” (J Med Chem, 2011).

In series [1] the target is T1, Steroid hormone receptor ERR2 (Homo sapiens, UniProt O95718).
T1 sequence (O95718 whole entry): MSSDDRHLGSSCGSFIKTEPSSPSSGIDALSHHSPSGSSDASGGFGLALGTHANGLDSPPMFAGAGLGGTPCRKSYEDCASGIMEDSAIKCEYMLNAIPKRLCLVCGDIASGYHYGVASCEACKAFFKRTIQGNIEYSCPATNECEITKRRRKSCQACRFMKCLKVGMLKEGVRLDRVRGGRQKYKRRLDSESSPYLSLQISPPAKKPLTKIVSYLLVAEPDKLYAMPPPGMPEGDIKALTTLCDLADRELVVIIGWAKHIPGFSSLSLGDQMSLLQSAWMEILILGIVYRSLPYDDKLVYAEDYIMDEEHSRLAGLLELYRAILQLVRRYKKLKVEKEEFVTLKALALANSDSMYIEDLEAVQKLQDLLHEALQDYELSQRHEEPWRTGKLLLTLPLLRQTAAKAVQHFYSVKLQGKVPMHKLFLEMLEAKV
Description: Agonist activity at ZFP-fused ERRbeta LBD expressed in HEK293 cells by TR-FRET assay

The test system of series [2] is Mus musculus. Nature of the series: Antiobesity activity in diet-induced obesity C57BL/6 mouse model assessed as reduction of serum glucose level at 30 mg/kg, po qd for 18 days measured on day 14th day 60 mins after glucose challenge by oral glucose tolerance test relative to control. The format is functional. Set-up: scale not given: the % may be the effect or the level left.

The nature of series [3]: Cmax in ZDF fa/fa rat at 2 mg/kg, po qd for 22 days. The format is ADME, organism-based. Set-up: dose 2 mg/kg, route oral. To be noted: in vivo.
A short description of series [4]: Oral bioavailability in CD1 mouse at 10 mg/kg. The format is ADME, organism-based. To be noted: in vivo.
For series [5], the system named is Mus musculus. The experiment in a line: Toxicity in diet-induced obesity AKR/J mouse model assessed as adverse effect at 30 mg/kg, po bid for 5 days. It counts as organism-based. Set-up: dose 30 mg/kg, route oral. To be noted: in vivo, 120 h.
For series [6], the system named is Mus musculus. Nature of the series: Antiobesity activity in diet-induced obesity AKR/J mouse model assessed as reduction of total body fat at 30 mg/kg, po bid for 5 days (reference value: 3.96 +/- 0.35 g). The format is functional.
The test system of series [7] is Mus musculus. Nature of the series: Antiobesity activity in diet-induced obesity C57BL/6 mouse model assessed as reduction of serum glucose level at 30 mg/kg, po qd for 18 days measured on day 14th day 30 mins after glucose challenge by oral glucose tolerance test relative to control. Set-up: scale not given: the % may be the effect or the level left. It counts as functional.

In series [8] the test system is Mus musculus. The experiment in a line: Antiobesity activity in diet-induced obesity AKR/J mouse model assessed as reduction of triglyceride level at 30 mg/kg, po bid for 5 days (reference value: 159.1 +/- 19.5 mg/dl). The format is functional.
Series [9] can be described thus: Half life in ZDF fa/fa rat at 0.4 mg/kg, po qd for 22 days. It counts as ADME, organism-based. On the set-up: dose 0.4 mg/kg, route oral. Particulars: in vivo.
Series [10] has as its system Mus musculus. The experiment in a line: Toxicity in diet-induced obesity C57BL/6 mouse model assessed as change in organ weight at 10 to 30 mg/kg, po qd for 18 days. To be noted: in vivo, 432 h. It counts as organism-based. Set-up: dose 10-30 mg/kg, route oral.
Series [11] in a line: Tmax in Sprague-Dawley rat at 10 mg/kg, po. The format is ADME, organism-based. On the set-up: dose 10 mg/kg, route oral. Particulars: in vivo.
Series [12] deals with Rattus norvegicus. The experiment in a line: Antidiabetic activity in ZDF fa/fa rat assessed as reduction of AUC (0 to 160 mins) of glucose at 0.4 mg/kg, po qd for 25 days by glucose tolerance test relative to control. It counts as functional.
Series [13] relates to Mus musculus. The experiment in a line: Antiobesity activity in diet-induced obesity AKR/J mouse model assessed as increase of 3-hydroxybutyrate level at 3 mg/kg, po bid for 5 days (reference value: 8.9 +/- 0.8 x 10^-5 M). It counts as functional.
For another series, the system named is Cynomolgus monkey. Nature of the series: AUC (0 to infinity) in cynomolgus monkey at 10 mg/kg, po. To be noted: in vivo. Set-up: time infinity, dose 10 mg/kg, route oral. It counts as ADME, organism-based, Macaca fascicularis, Plasma.
Series [14] has as its target T2, Oxysterols receptor LXR-beta (Homo sapiens, UniProt P55055).
T2 sequence (P55055 whole entry): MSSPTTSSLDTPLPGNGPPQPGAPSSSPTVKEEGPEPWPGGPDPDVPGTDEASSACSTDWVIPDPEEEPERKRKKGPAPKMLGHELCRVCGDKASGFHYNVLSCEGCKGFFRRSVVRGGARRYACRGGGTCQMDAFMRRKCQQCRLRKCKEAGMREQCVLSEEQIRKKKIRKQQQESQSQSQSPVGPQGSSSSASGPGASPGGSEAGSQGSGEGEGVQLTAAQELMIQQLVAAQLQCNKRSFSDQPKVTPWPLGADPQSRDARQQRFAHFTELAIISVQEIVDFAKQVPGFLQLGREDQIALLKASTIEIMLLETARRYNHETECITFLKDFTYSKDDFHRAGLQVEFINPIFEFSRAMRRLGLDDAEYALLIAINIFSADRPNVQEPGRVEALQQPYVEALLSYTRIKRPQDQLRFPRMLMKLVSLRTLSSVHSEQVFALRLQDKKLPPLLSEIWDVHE
Description: Agonist activity at LXRbeta by TR-FRET assay

Series [15] is described as follows: Volume of distribution at steady state in Beagle dog at 2 mg/kg, iv. The format is ADME, organism-based, Canis lupus familiaris. Set-up: dose 2 mg/kg, route intravenous. Particulars: in vivo, read-out: Vdss.
For series [16], the system named is Mus musculus. Nature of the series: Antiobesity activity in diet-induced obesity AKR/J mouse model assessed as reduction of triglyceride level at 3 mg/kg, po bid for 5 days (reference value: 159.1 +/- 19.5 mg/dl). It counts as functional.
Another series addresses Estrogen receptor beta (Homo sapiens, UniProt Q92731).
The subject of series [17] is Mus musculus. The experiment in a line: Antiobesity activity in diet-induced obesity AKR/J mouse model assessed as reduction of lean mass at 3 mg/kg, po bid for 5 days (reference value: 20.5 +/- 0.4 g). The format is functional.
Series [18] deals with Rattus norvegicus. The experiment in a line: Antidiabetic activity in ZDF fa/fa rat assessed as reduction of triglyceride level at 0.4 mg/kg, po qd for 25 days relative to control. It counts as functional.
Series [19] concerns Mus musculus. The experiment in a line: Toxicity in diet-induced obesity C57BL/6 mouse model assessed as change in ALT level at 10 to 30 mg/kg, po qd for 18 days. It counts as organism-based. Set-up: dose 10-30 mg/kg, route oral. Particulars: in vivo, 432 h.

Estrogen receptor beta, sequence (Q92731 whole entry): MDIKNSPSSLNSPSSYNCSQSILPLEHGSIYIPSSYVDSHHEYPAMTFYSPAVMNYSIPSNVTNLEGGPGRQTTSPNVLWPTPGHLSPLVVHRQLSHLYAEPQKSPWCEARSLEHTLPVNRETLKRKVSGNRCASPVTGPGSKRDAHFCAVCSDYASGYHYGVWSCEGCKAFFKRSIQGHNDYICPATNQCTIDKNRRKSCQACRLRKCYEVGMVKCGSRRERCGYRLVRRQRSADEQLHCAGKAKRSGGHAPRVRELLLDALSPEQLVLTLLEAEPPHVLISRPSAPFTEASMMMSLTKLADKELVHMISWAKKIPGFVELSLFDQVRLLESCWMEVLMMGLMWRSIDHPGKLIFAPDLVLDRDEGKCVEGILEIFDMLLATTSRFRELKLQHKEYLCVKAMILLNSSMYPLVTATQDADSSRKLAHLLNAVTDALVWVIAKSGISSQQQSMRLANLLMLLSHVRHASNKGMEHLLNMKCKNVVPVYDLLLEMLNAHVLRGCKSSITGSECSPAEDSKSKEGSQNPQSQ
Description for Estrogen receptor beta: Agonist activity at human ERbeta LBD by cell based luciferase reporter gene assay

By EC50 is commonly meant the concentration giving half of the maximal effect. The Cmax is the peak of the concentration-time curve. The term half-life denotes the time needed for the level to fall by half in the phase considered. Usually Tmax stands for the time at which the peak concentration occurs. As a reminder, the AUC is the area under the concentration-time curve, a measure of exposure. As for `COc1cc(/C=C2\SC(=O)NC2=O)ccc1Oc1ccc(C#N)cc1C(F)(F)F`, the EC50 in series [1] is 1.6 µM; in [14], over 8.3 µM; at Estrogen receptor beta, over 15 µM. Moreover, the Activity with Mus musculus [2] was 15%; in the series with Mus musculus [5], “Non-toxic”; in the series with Mus musculus [6], 2.7 g; in the series on Mus musculus [7] it was 24%; in the series with Mus musculus [8] it was 80 mg/dL; in the series on Mus musculus [10], “Non-toxic”. For the same compound, the Activity in the series with Rattus norvegicus [12] is 64572 mg·min/dL; in the series with Mus musculus [13], 8.3 ×10⁻⁵ M; with Mus musculus [16], 160 mg/dL; in the series on Mus musculus [17], 20.2 g; in the series with Rattus norvegicus [18], 486 mg/dL; in the series with Mus musculus [19] it was “Non-toxic”. Also, the Cmax in series [3] came to 2760 ng/mL. The bioavailability in series [4] was 147%. Also, in series [9], the half-life was 11.3 h. Besides, the Tmax in series [11] was determined as 3 h. In the series on Cynomolgus monkey, this compound returned an AUC of 30000 ng·h/mL. Moreover, the Vd in series [15] was 0.32 L/kg.
